Experimental data: patent US8263762B2, “Alkoxy-carbonyl-amino-alkynyl-adenosine compounds and derivatives thereof as A2AR agonists” (Dogwood Pharmaceuticals, Inc., priority 2009, dated 2012)

System: Japanese white rabbits
Assay: Test for intraocular pressure reduction using Japanese white rabbits
Type: in vivo
Protocol: (1) Test for intraocular pressure reduction using Japanese white rabbits: In order to examine the usefulness of the present compound as a preventive or therapeutic agent for glaucoma or ocular hypertension, an intraocular pressure lowering effect when the present compound was administered to Japanese white rabbits (sex: male) was evaluated and studied. As the test compound, Compound A was used. […]
Administration method and measurement method: Just before any of the test liquids was administered, one drop of 0.4% oxybuprocaine hydrochloride eye drop was instilled into both eyes of each experimental animal to achieve local anesthesia, and the intraocular pressure was measured using an applanation tonometer. This intraocular pressure was determined as an initial intraocular pressure. […]
After the test liquid was administered, the intraocular pressure of both eyes of each experimental animal was measured at predetermined times (at 1, 2, 4 and 6 hours after administration). […]
Calculation of intraocular pressure reduction degree: The intraocular pressure reduction degree of each test compound administration group at each measurement time was calculated from the following calculation formula. Among the obtained intraocular pressure reduction degrees at respective measurement times, the maximum value was determined as a maximum intraocular pressure reduction degree. […]

SMILES: COC(=O)N(C)CC#Cc1nc(N)c2ncn([C@@H]3O[C@H](C(=O)NC4CC4)C(O)C3O)c2n1 (some centres unmarked) [Compound A]
- intraocular pressure lowering action (Japanese white rabbits, eye drop): exhibited an intraocular pressure lowering action
- Maximum intraocular pressure reduction degree (male Japanese white rabbits, 0.01% (w/v) eye drop, single dose into one eye, maximum of 1, 2, 4 and 6 hours, average of 5 cases): 3.9 mmHg
